{"source": "patent EP4813403A1", "about": "“USE OF GLP-1R/GIPR DOUBLE-TARGET AGONIST IN PREPARING ANIMAL DRUG” (Hangzhou Zhongmeihuadong Pharmaceutical Co., Ltd., priority 2023, dated 2025)", "key": {"[1]": {"assay": "Pharmacokinetics in C57 mice", "settings": "C57, mouse, in vivo", "description": "After subcutaneous or intravenous administration to C57 mice, plasma was collected and the drug concentration in plasma was determined to illustrate the in vivo pharmacokinetic properties of the compound according to the present invention. […] 20.0 µL of thawed plasma sample was taken. 20 µL of 50% aqueous methanol solution (containing 100 ng mL^-1 Tolbutamide) and 60 µL of acetonitrile were added sequentially to precipitate protein. The mixture was vortexed for 5 minutes, and centrifuged at 4815 rpm for 8 minutes. 50.0 µL of the supernatant was taken, into which 50.0 µL of 0.5% aqueous formic acid solution was added. The mixture was vortexed for 5 minutes. 50 µL of the mixture solution was sampled and injected into the LC-MS/MS to determine the drug concentration in plasma. Based on the drug concentration in plasma of the compounds in C57 mice, the pharmacokinetic parameters were calculated by applying the software Winnolin 8.3 in a non-compartmental model, and the results were shown in Table 7 and Table 8 below. Table 7 Average Pharmacokinetic Parameters after Single Subcutaneous Administration to Mice"}, "human GIP Receptor": {"molecular_target": "T1, human GIP Receptor (Homo sapiens, UniProt P48546)", "T1 construct": "expressed in transfected cells", "T1 sequence (P48546 22-466)": "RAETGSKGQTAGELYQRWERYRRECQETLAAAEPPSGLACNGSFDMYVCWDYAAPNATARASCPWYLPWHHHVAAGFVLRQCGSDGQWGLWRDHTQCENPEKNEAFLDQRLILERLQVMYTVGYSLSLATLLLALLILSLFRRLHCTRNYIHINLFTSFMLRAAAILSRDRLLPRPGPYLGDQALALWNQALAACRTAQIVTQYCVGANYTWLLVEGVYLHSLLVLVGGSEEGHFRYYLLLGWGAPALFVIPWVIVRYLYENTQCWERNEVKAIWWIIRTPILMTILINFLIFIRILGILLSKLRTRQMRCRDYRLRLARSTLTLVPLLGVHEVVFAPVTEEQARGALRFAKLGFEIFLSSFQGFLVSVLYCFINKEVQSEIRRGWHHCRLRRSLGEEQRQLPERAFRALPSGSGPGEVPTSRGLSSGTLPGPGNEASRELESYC", "assay": "In vitro binding activity to human GIP receptor ([125I]GIP displacement, crude cell membranes)", "settings": "ratio of the Ki value of the endogenous ligand to the Ki value of the test compound; larger ratio = stronger binding"}, "[2]": {"assay": "Pharmacokinetics following single administration in SD rats", "settings": "male, Sprague-Dawley, rat, in vivo, sc", "method_in_brief": "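Male SD rats (230-268 g, n=3) dosed once at 50.0 nmol/kg s.c. or 25.0 nmol/kg i.v. Plasma proteins precipitated with acetonitrile containing internal standards; drug levels quantified by LC-MS/MS.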"}}, "data": [{"smiles": "CC[C@H](C)[C@H](NC(=O)C(C)(C)NC(=O)[C@H](Cc1ccc(O)cc1)NC(=O)[C@H](CC(=O)O)NC(=O)[C@H](CO)NC(=O)[C@@H](NC(=O)C(C)(Cc1ccccc1)NC(=O)[C@@H](NC(=O)CNC(=O)[C@H](CCC(=O)O)NC(=O)C(C)(C)NC(=O)[C@@H](N)Cc1ccc(O)cc1)[C@@H](C)O)[C@@H](C)O)C(=O)NC(C)(C)C(=O)N[C@@H](CC(C)C)C(=O)N[C@@H](CC(=O)O)C(=O)N[C@@H](CCCCN)C(=O)N[C@@H](CCC(N)=O)C(=O)N[C@@H](C)C(=O)N[C@@H](CCC(N)=O)C(=O)N[C@@H](C)C(=O)N[C@@H](CCC(=O)O)C(=O)N[C@@H](Cc1ccccc1)C(=O)N[C@H](C(=O)N[C@@H](CCCCN)C(=O)N[C@@H](Cc1c[nH]c2ccccc12)C(=O)N[C@@H](CC(C)C)C(=O)N[C@@H](CC(C)C)C(=O)N[C@@H](CCCCNC(=O)COCCOCCNC(=O)COCCOCCNC(=O)COCCOCCNC(=O)CC[C@H](NC(=O)CCCCCCCCCCCCCCCCCCCCC(=O)O)C(=O)O)C(=O)NCC(=O)NCC(=O)N1CCC[C@H]1C(=O)N[C@@H](CO)C(=O)N[C@@H](CO)C(=O)NCC(=O)N[C@@H](C)C(=O)N1CCC[C@H]1C(=O)N1CCC[C@H]1C(=O)N1CCC[C@H]1C(=O)N[C@@H](CO)C(=O)N[C@@H](CCCCN)C(N)=O)C(C)C", "note": "(stereo partly shown) [Compound P020]", "values": [{"measurement": "AUC(0-inf)", "setting": "[1]; iv", "value": 17400, "unit": "ng·h/mL"}, {"measurement": "AUC(0-t)", "setting": "[1]; iv", "value": 16300, "unit": "ng·h/mL"}, {"measurement": "C0", "setting": "[1]; iv", "value": 1820, "unit": "ng/mL"}, {"measurement": "half-life", "setting": "[1]; iv", "value": 16.7, "unit": "h"}, {"measurement": "MRT", "setting": "[1]; iv, MRT(0-t)", "value": 16.8, "unit": "h"}, {"measurement": "MRT", "setting": "[1]; iv, MRT(0-∞)", "value": 21.8, "unit": "h"}, {"measurement": "AUC(0-inf)", "setting": "[1]; sc", "value": 21100, "unit": "ng·h/mL"}, {"measurement": "AUC(0-t)", "setting": "[1]; sc", "value": 19000, "unit": "ng·h/mL"}, {"measurement": "Cmax", "setting": "[1]; sc", "value": 836, "unit": "ng/mL"}, {"measurement": "Tmax", "setting": "[1]; sc", "value": 4.25, "unit": "h"}, {"measurement": "half-life", "setting": "[1]; sc", "value": 19.9, "unit": "h"}, {"measurement": "MRT", "setting": "[1]; sc, MRT(0-t)", "value": 21.8, "unit": "h"}, {"measurement": "MRT", "setting": "[1]; sc, MRT(0-∞)", "value": 29.4, "unit": "h"}, {"measurement": "GIPR Ki ratio", "setting": "human GIP Receptor", "value": 0.05}, {"measurement": "Tmax", "setting": "[2]", "value": 24, "unit": "h"}, {"measurement": "half-life", "setting": "[2]", "value": "17.9 ± 0.57", "unit": "h"}]}]}
